Reference: patent US20070025902A1, “RECOVERY OF FLUORINATED CARBOXYLIC ACID FROM ADSORBENT PARTICLES” (priority 2005, published 2007)
Marks after values point to notes of the source that are not given here.

test: Determination of bio-accumulation: urinary clearance pharmacokinetic study in rats; settings: clinical signs of toxicity and gross necropsy 96 hours post-dose, oral gavage, 73 micro Moles per kg body weight
Protocol: The perfluorinated and partially fluorinated carboxylates were evaluated for urinary clearance using a pharmacokinetic study in rats. The goal was to measure the total amount of parent compound eliminated via urinary output and estimate the rate of elimination. The study was approved by the IACUC (Institutional Animal Care and Use Committees) and was performed in 3M Company's AAALAC (Association for Assessment and Accreditation of Laboratory Animal Care)—accredited facility.
The study utilized male Sprague Dawley rats, 6 to 8 weeks of age, and approximately 200 to 250 g body weight at study onset. The test compounds of table 2 were administered at a dose of 73 micro Moles per kg body weight in rats (N=3 animals per tested compound). All test compounds were prepared in sterile deionized water and given to rats via oral gavage. After test compounds administration, the rats were housed individually in metabolism cages for urine collection: 0 to 6 hours, 6 to 24 hours, 24 to 48 hours and 72 to 96 hours. Animals were observed throughout the study for clinical signs of toxicity. Gross necropsy was performed at the termination of each study (96 hours post-dose) with sera and liver samples being retained from each animal.
The concentration of the parent compound or metabolites thereof were quantitatively measured via fluorine NMR on each urine sample for each animal at each time point based on internally added standards.

Row | Structure (SMILES) | Compound-related Effects
1 | N.O=C(O)C(F)(F)C(F)(F)OC(F)(F)C(F)(F)C(F)(F)C(F)(F)F [Compound 9, C4F9—O—CF2—CF2—COONH4] | Hepatomegaly
2 | N.O=C(O)C(F)(F)C(F)(F)C(F)(F)C(F)(F)C(F)(F)OC(F)C(F)(F)F (centres unmarked) [Compound 14, CF3—CFH—O—(CF2)5—COONH4] | Hepatomegaly
3 | N.O=C(O)C(F)(F)C(F)(F)C(F)(F)C(F)(F)C(F)(F)C(F)(F)C(F)(F)F [Compound C-1, C7F15COONH4, reference compound] | Hepatomegaly
4 | N.O=C(O)C(F)(F)OC(F)(F)C(F)(OC(F)(F)C(F)(F)C(F)(F)F)C(F)(F)F (centres unmarked) [Compound C-3, CF3CF2CF2OCF(CF3)CF2OCF2COONH4, reference compound] | Hepatomegaly

same assay, conditions: no parent compound in urine, based on elimination of the major metabolite C3F7—O—CHFCOO−, oral gavage, 73 micro Moles per kg

Row | Structure (SMILES) | % Recovery (96 h) | T½ (h)
5 | N.O=C(O)COC(F)(F)C(F)OC(F)(F)C(F)(F)C(F)(F)F (centres unmarked) [Compound 16, C3F7—O—CFH—CF2—O—CH2—COONH4] | 65* % | 13* h

same assay, conditions: parent compound recovered in urine after 96 h, oral gavage, 73 micro Moles per kg body weight

Row | Structure (SMILES) | % Recovery (96 h) [%]
6 | N.O=C(O)C(F)(F)OC(F)(F)C(F)(F)C(F)(F)OC(F)(F)F [Compound 1, CF3—O—(CF2)3—O—CF2—COONH4] | 73
7 | N.O=C(O)C(F)(F)OC(F)(F)OC(F)(F)F [Compound 2, CF3—OCF2—O—CF2—COONH4] | 96
8 | N.O=C(O)C(F)(F)OC(F)(F)OC(F)(F)OC(F)(F)F [Compound 3, CF3—OCF2—OCF2—OCF2—COONH4] | 100
9 | N.O=C(O)C(F)(F)OC(F)(F)C(F)(F)C(F)(F)OC(F)(F)F [Compound 4, CF3—(OCF2)3—OCF2—COONH4] | 50
10 | N.O=C(O)C(F)(F)OC(F)(F)C(F)(F)C(F)(F)F [Compound 5, C3F7—O—CF2—COONH4] | 97
11 | N.O=C(O)C(F)(F)C(F)(F)OC(F)(F)F [Compound 6, CF3—O—CF2—CF2—COONH4] | 100
12 | N.O=C(O)C(F)(F)C(F)(F)OC(F)(F)C(F)(F)F [Compound 7, C2F5—O—CF2—CF2—COONH4] | 100
13 | N.O=C(O)C(F)(F)C(F)(F)OC(F)(F)C(F)(F)C(F)(F)F [Compound 8, C3F7—O—CF2—CF2—COONH4] | 82
14 | N.O=C(O)C(F)(F)C(F)(F)OC(F)(F)C(F)(F)C(F)(F)C(F)(F)F [Compound 9, C4F9—O—CF2—CF2—COONH4] | 42
15 | N.O=C(O)C(F)(F)OC(F)(F)C(F)(F)OC(F)(F)C(F)(F)F [Compound 10, C2F5—O—CF2—CF2—O—CF2—COONH4] | 99
16 | N.O=C(O)C(F)(F)C(F)OC(F)(F)C(F)(F)C(F)(F)OC(F)(F)F (centres unmarked) [Compound 11, CF3—O—CF2—CF2—CF2—O—CHF—CF2—COONH4] | 84
17 | N.O=C(O)C(F)OC(F)(F)C(F)(F)C(F)(F)OC(F)(F)F (centres unmarked) [Compound 12, CF3—O—CF2—CF2—CF2—O—CHF—COONH4] | 95
18 | N.O=C(O)C(F)(F)C(F)OC(F)(F)C(F)(F)C(F)(F)F (centres unmarked) [Compound 13, C3F7—O—CFH—CF2COONH4] | 94
19 | N.O=C(O)C(F)(F)C(F)(F)C(F)(F)C(F)(F)C(F)(F)OC(F)C(F)(F)F (centres unmarked) [Compound 14, CF3—CFH—O—(CF2)5—COONH4] | 32
20 | N.O=C(O)C(F)(F)C(F)(F)C(F)(F)OC(F)C(F)(F)F (centres unmarked) [Compound 15, CF3—CFH—O—(CF2)3—COONH4] | 95
21 | N.O=C(O)C(F)(F)C(F)(F)C(F)(F)C(F)(F)C(F)(F)C(F)(F)C(F)(F)F [Compound C-1, C7F15COONH4, reference compound] | 6
22 | N.O=C(O)C(F)(F)OC(F)(F)C(F)(OC(F)(F)C(F)(F)C(F)(F)F)C(F)(F)F (centres unmarked) [Compound C-3, CF3CF2CF2OCF(CF3)CF2OCF2COONH4, reference compound] | 5

same assay, conditions: renal elimination half-life of parent compound from urine, oral gavage, 73 micro Moles per kg body weight, exponential least squares curve fitting

Row | Structure (SMILES) | T½ [h] | T½ (h)
23 | N.O=C(O)C(F)(F)OC(F)(F)OC(F)(F)F [Compound 2, CF3—OCF2—O—CF2—COONH4] | 12 | 
24 | N.O=C(O)C(F)(F)OC(F)(F)OC(F)(F)OC(F)(F)F [Compound 3, CF3—OCF2—OCF2—OCF2—COONH4] | 12 | 
25 | N.O=C(O)C(F)(F)OC(F)(F)C(F)(F)C(F)(F)F [Compound 5, C3F7—O—CF2—COONH4] | 11 | 
26 | N.O=C(O)C(F)(F)C(F)(F)OC(F)(F)F [Compound 6, CF3—O—CF2—CF2—COONH4] | 11 | 
27 | N.O=C(O)C(F)(F)C(F)(F)OC(F)(F)C(F)(F)F [Compound 7, C2F5—O—CF2—CF2—COONH4] | 10 | 
28 | N.O=C(O)C(F)(F)C(F)(F)OC(F)(F)C(F)(F)C(F)(F)F [Compound 8, C3F7—O—CF2—CF2—COONH4] | 12 | 
29 | N.O=C(O)C(F)(F)C(F)(F)OC(F)(F)C(F)(F)C(F)(F)C(F)(F)F [Compound 9, C4F9—O—CF2—CF2—COONH4] | 31 | 
30 | N.O=C(O)C(F)(F)OC(F)(F)C(F)(F)OC(F)(F)C(F)(F)F [Compound 10, C2F5—O—CF2—CF2—O—CF2—COONH4] | 10 | 
31 | N.O=C(O)C(F)(F)C(F)OC(F)(F)C(F)(F)C(F)(F)OC(F)(F)F (centres unmarked) [Compound 11, CF3—O—CF2—CF2—CF2—O—CHF—CF2—COONH4] | 12 | 
32 | N.O=C(O)C(F)OC(F)(F)C(F)(F)C(F)(F)OC(F)(F)F (centres unmarked) [Compound 12, CF3—O—CF2—CF2—CF2—O—CHF—COONH4] | 11 | 
33 | N.O=C(O)C(F)(F)C(F)OC(F)(F)C(F)(F)C(F)(F)F (centres unmarked) [Compound 13, C3F7—O—CFH—CF2COONH4] | 11 | 
34 | N.O=C(O)C(F)(F)C(F)(F)C(F)(F)C(F)(F)C(F)(F)OC(F)C(F)(F)F (centres unmarked) [Compound 14, CF3—CFH—O—(CF2)5—COONH4] | 24 | 
35 | N.O=C(O)C(F)(F)C(F)(F)C(F)(F)OC(F)C(F)(F)F (centres unmarked) [Compound 15, CF3—CFH—O—(CF2)3—COONH4] | 8 | 
36 | N.O=C(O)C(F)(F)C(F)(F)C(F)(F)C(F)(F)C(F)(F)C(F)(F)C(F)(F)F [Compound C-1, C7F15COONH4, reference compound] |  | ˜550 h
37 | N.O=C(O)C(F)(F)OC(F)(F)C(F)(OC(F)(F)C(F)(F)C(F)(F)F)C(F)(F)F (centres unmarked) [Compound C-3, CF3CF2CF2OCF(CF3)CF2OCF2COONH4, reference compound] | 95 | 
